IC50 data for 27 compounds are collected here from patent US7723523B2, “Tetrahydropyridothiophenes” (4SC AG, priority 2004, dated 2010).

Assay [1] has as its system RKO (RKOp27) human colon adenocarcinoma cells. The experiment in a line: Alamar Blue cell viability assay, anti-proliferative/cytotoxic activity on proliferating RKOp27 cells. The class given is cell-based. The note with it: absence of Ponasterone A, 72 hours incubation, read-out: IC50 RKO p27 proliferating. In outline: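 RKOp27 subclone of RKO cells, 4000/well in DMEM with 10% FCS, was treated 24 h after seeding with semi-log compound dilutions in quadruplicate for 72 h at 37 °C, 5% CO2. Alamar Blue fluorescence (ex 544/em 590 nm) was read as % viability of untreated cells, and IC50 was taken from concentration-effect curves.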

In assay [2] the test system is RKO colon adenocarcinoma cells (RKOp27) arrested by expression of ectopic p27Kip1. Description: Alamar Blue cell viability assay on RKOp27 cells arrested by Ponasterone A-induced p27Kip1 (cell cycle specific mode of action). It counts as cell-based. The settings on record: Homo sapiens, RKOp27, 72 h, cells arrested by p27Kip1 induced with 10 μM Ponasterone A, 72 hours incubation, read-out: IC50 RKO p27 arrested. In a few lines: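 Viability measured by Alamar Blue fluorescence (ex 544, em 590 nm) after 72 h, 37 °C compound exposure in quadruplicate, normalized to untreated cells as 100%. Cells were p27Kip1-arrested RKOp27, induced with 10 μM Ponasterone A at seeding; compound added 24 h later.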

Where only a bound is given, the exact number is not on record here.

In the case of `CCSC(=O)N1CCc2c(sc(NC(=O)/C=C/c3cccnc3)c2C#N)C1` [Example 36, 3-Cyano-2-((E)-3-pyridin-3-yl-allanoylamino)-4,7-dihydro-5H-thieno[2,3-c]pyridine-6-carbothioic acid S-ethyl ester], the IC50 in assay [1] was not above 2 µM; in assay [2], more than 100 µM.
With `COCCOCC(=O)N1CCc2c(sc(NC(=O)/C=C/c3ccco3)c2C#N)C1` [Example 226, (E)-N-{3-Cyano-6-[2-(2-methoxy-ethoxy)ethanoyl]-4,5,6,7-tetrahydro-thieno[2,3-c]pyridin-2-yl}-3-furan-2-yl-acrylamide], the figures for the IC50 in assay [1] and in assay [2] were not above 2 µM and not below 100 µM, respectively.
In the case of `COCCOC(=O)N1CCc2c(sc(NC(=O)/C=C/c3ccccc3)c2C#N)C1` [Example 118, 3-Cyano-2-((E)-3-phenyl-allanoylamino)-4,7-dihydro-5H-thieno[2,3-c]pyridine-6-carboxylic acid 2-methoxy-ethyl ester], the IC50 in assay [1] is not above 2 µM; in assay [2], not below 100 µM.
On to `COCCOC(=O)N1CCc2c(sc(NC(=O)/C=C/c3cccnc3)c2C#N)C1` [Example 167, 3-Cyano-2-((E)-3-pyridin-3-yl-allanoylamino)-4,7-dihydro-5H-thieno[2,3-c]pyridine-6-carboxylic acid 2-methoxy-ethyl ester], for which the IC50 in assay [1] was not above 2 µM; in assay [2], not below 100 µM.
The matching figures for `CCOC(=O)N1CCc2c(sc(NC(=O)/C=C/c3ccc(Cl)s3)c2C#N)C1` [Example 72, 2-[(E)-3-(5-Chloro-thiophen-2-yl)-allanoylamino]-3-cyano-4,7-dihydro-5H-thieno[2,3-c]pyridine-6-carboxylic acid ethyl ester]: not above 2 µM and not below 100 µM.
`N#Cc1c(NC(=O)/C=C/c2ccco2)sc2c1CCN(C(=O)Cc1ccccn1)C2` [Example 227, (E)-N-[3-Cyano-6-(2-pyridin-2-yl-ethanoyl)-4,5,6,7-tetrahydro-thieno[2,3-c]pyridin-2-yl]-3-furan-2-yl-acrylamide]: the IC50 in assay [1] is not above 2 µM; in assay [2], not below 100 µM.
Taken in the same sequence, the figures for `N#Cc1c(NC(=O)/C=C/c2ccccc2)sc2c1CCN(C(=O)Cn1ccnc1)C2` [Example 188, (E)-N-[3-Cyano-6-(2-imidazol-1-yl-ethanoyl)-4,5,6,7-tetrahydro-thieno[2,3-c]pyridin-2-yl]-3-phenyl-acrylamide] were not above 2 µM and not below 100 µM.
With `COC(=O)CCCC(=O)N1CCc2c(sc(NC(=O)/C=C/c3ccccc3)c2C#N)C1` [Example 186, 5-[3-Cyano-2-((E)-3-phenyl-allanoylamino)-4,7-dihydro-5H-thieno[2,3-c]pyridin-6-yl]-5-oxo-pentanoic acid methyl ester], the figures for the IC50 in assay [1] and in assay [2] were not above 2 µM and not below 100 µM, respectively.
Regarding `CCOC(=O)N1CCc2c(sc(NC(=O)/C=C/c3ccc4c(c3Br)OCO4)c2C#N)C1` [Example 232, 2-[(E)-3-(4-Bromo-benzo[1,3]dioxol-5-yl)-allanoylamino]-3-cyano-4,7-dihydro-5H-thieno[2,3-c]pyridine-6-carboxylic acid ethyl ester], the IC50 in assay [1] is not above 2 µM; in assay [2] it was not below 100 µM.
For the compound `N#Cc1c(NC(=O)/C=C/c2ccco2)sc2c1CCN(C(=O)OCCc1ccccn1)C2` [Example 243, 3-Cyano-2-((E)-3-furan-2-yl-allanoylamino)-4,7-dihydro-5H-thieno[2,3-c]pyridine-6-carboxylic acid 2-pyridin-2-yl-ethyl ester], the IC50 in assay [1] was not above 2 µM; in assay [2], not below 100 µM.
For `CCOC(=O)N1CCc2c(sc(NC(=O)/C=C/c3sccc3C)c2C#N)C1` [Example 75, 3-Cyano-2-[(E)-3-(3-methyl-thiophen-2-yl)-allanoylamino]-4,7-dihydro-5H-thieno[2,3-c]pyridine-6-carboxylic acid ethyl ester], the figures for the 50% inhibitory concentration (IC50) in assay [1] and in assay [2] were not above 2 µM and not below 100 µM, respectively.
Taken in the same sequence, the figures for `CC(=O)OCCCC(=O)N1CCc2c(sc(NC(=O)/C=C/c3ccccc3)c2C#N)C1` [Example 191, Acetic acid 4-[3-cyano-2-((E)-3-phenyl-allanoylamino)-4,7-dihydro-5H-thieno[2,3-c]pyridin-6-yl]-4-oxo-butyl ester] were not above 2 µM and not below 100 µM.
Taken in the same sequence, the figures for `CCOC(=O)CC(=O)N1CCc2c(sc(NC(=O)/C=C/c3ccccc3)c2C#N)C1` [Example 176, 3-[3-Cyano-2-((E)-3-phenyl-allanoylamino)-4,7-dihydro-5H-thieno[2,3-c]pyridin-6-yl]-3-oxo-propionic acid ethyl ester] were not above 2 µM and not below 100 µM.
With `CCOc1ccccc1/C=C/C(=O)Nc1sc2c(c1C#N)CCN(C(=O)COCCOC)C2` [Example 217, (E)-N-{3-Cyano-6-[2-(2-methoxy-ethoxy)-ethanoyl]-4,5,6,7-tetrahydro-thieno[2,3-c]pyridin-2-yl}-3-(2-ethoxy-phenyl)-acrylamide], the half-maximal inhibitory concentration (IC50) in assay [1] is not above 2 µM; in assay [2], not below 100 µM.
The matching figures for `CCOC(=O)N1CCc2c(sc(NC(=O)/C=C/c3cccn3C)c2C#N)C1` [Example 97, 3-Cyano-2-[(E)-3-(1-methyl-1H-pyrrol-2-yl)-allanoylamino]-4,7-dihydro-5H-thieno[2,3-c]pyridine-6-carboxylic acid ethyl ester]: not above 2 µM and not below 100 µM.
In the case of `CCOC(=O)N1CCc2c(sc(NC(=O)/C=C/c3cccc(F)c3)c2C#N)C1` [Example 21, 3-Cyano-2-[(E)-3-(3-fluoro-phenyl)-allanoylamino]-4,7-dihydro-5H-thieno[2,3-c]pyridine-6-carboxylic acid ethyl ester], the IC50 in assay [1] was not above 2 µM; in assay [2], more than 100 µM.
Taken in the same sequence, the figures for `Cc1ncc([N+](=O)[O-])n1CCOC(=O)N1CCc2c(sc(NC(=O)/C=C/c3ccccc3)c2C#N)C1` [Example 122, 3-Cyano-2-((E)-3-phenyl-allanoylamino)-4,7-dihydro-5H-thieno[2,3-c]pyridine-6-carboxylic acid 2-(2-methyl-5-nitro-imidazol-1-yl)-ethyl ester] were not above 2 µM and not below 100 µM.
Take `COCCC(=O)N1CCc2c(sc(NC(=O)/C=C/c3ccccc3)c2C#N)C1` [Example 177, (E)-N-[3-Cyano-6-(3-methoxy-propanoyl)-4,5,6,7-tetrahydro-thieno[2,3-c]pyridin-2-yl]-3-phenyl-acrylamide]: the values for the IC50 in assay [1] and in assay [2] were not above 2 µM and not below 100 µM, respectively.
Taken in the same sequence, the figures for `CCOC(=O)N1CCc2c(sc(NC(=O)/C=C/c3ccccc3C)c2C#N)C1` [Example 12, 3-Cyano-2-((E)-3-o-tolyl-allanoylamino)-4,7-dihydro-5H-thieno[2,3-c]pyridine-6-carboxylic acid ethyl ester] were not above 2 µM and more than 100 µM.
As to `N#Cc1c(NC(=O)/C=C/c2ccccc2)sc2c1CCN(C(=O)OCCCN1CCOCC1)C2` [Example 120, 3-Cyano-2-((E)-3-phenyl-allanoylamino)-4,7-dihydro-5H-thieno[2,3-c]pyridine-6-carboxylic acid 3-morpholin-4-yl-propyl ester], the results for the IC50 in assay [1] and in assay [2] were not above 2 µM and not below 100 µM, respectively.
In the case of `CCOC(=O)N1CCc2c(sc(NC(=O)/C=C/c3cccc(OC)c3OC)c2C#N)C1` [Example 20, 3-Cyano-2-[(E)-3-(2,3-dimethoxy-phenyl)-allanoylamino]-4,7-dihydro-5H-thieno[2,3-c]pyridine-6-carboxylic acid ethyl ester], the figures for the IC50 in assay [1] and in assay [2] were not above 2 µM and more than 100 µM, respectively.
For `N#Cc1c(NC(=O)/C=C/c2ccco2)sc2c1CCN(C(=O)OCc1ccccn1)C2` [Example 241, 3-Cyano-2-((E)-3-furan-2-yl-allanoylamino)-4,7-dihydro-5H-thieno[2,3-c]pyridine-6-carboxylic acid pyridin-2-ylmethyl ester], the IC50 in assay [1] was not above 2 µM; in assay [2], not below 100 µM.
The matching figures for `CCOC(=O)N1CCc2c(sc(NC(=O)/C=C/c3ccccc3-c3ccccc3)c2C#N)C1` [Example 73, 2-((E)-3-Biphenyl-2-yl-allanoylamino)-3-cyano-4,7-dihydro-5H-thieno[2,3-c]pyridine-6-carboxylic acid ethyl ester]: not above 2 µM and not below 100 µM.
The matching figures for `N#Cc1c(NC(=O)/C=C/c2cccnc2)sc2c1CCN(C(=O)CCc1nccs1)C2` [Example 198, (E)-N-[3-Cyano-6-(3-thiazol-2-yl-propanoyl)-4,5,6,7-tetrahydro-thieno[2,3-c]pyridin-2-yl]-3-pyridin-3-yl-acrylamide]: not above 2 µM and not below 100 µM.
`N#Cc1c(NC(=O)/C=C/c2ccccc2)sc2c1CCN(C(=O)OCCCc1ccccn1)C2` [Example 124, 3-Cyano-2-((E)-3-phenyl-allanoylamino)-4,7-dihydro-5H-thieno[2,3-c]pyridin-6-carboxylic acid 3-pyridin-2-yl-propyl ester]: the IC50 in assay [1] is not above 0.5 µM; in assay [2], not below 50 µM.
For `CCCC(=O)N1CCc2c(sc(NC(=O)/C=C/c3ccccc3)c2C#N)C1` [Example 33, (E)-N-(6-Butyryl-3-cyano-4,5,6,7-tetrahydro-thieno[2,3-c]pyridin-2-yl)-3-phenyl-acrylamide], the IC50 was not above 2 µM in assay [1] and more than 100 µM in assay [2].
For the compound `COc1ccc(CCOC(=O)N2CCc3c(sc(NC(=O)/C=C/c4cccnc4)c3C#N)C2)cc1` [Example 146, 3-Cyano-2-((E)-3-pyridin-3-yl-allanoylamino)-4,7-dihydro-5H-thieno[2,3-c]pyridine-6-carboxylic acid 2-(4-methoxy-phenyl)-ethyl ester], the results for the IC50 in assay [1] and in assay [2] were not above 2 µM and not below 100 µM, respectively.
